Several values for one entry are separate records, joined by “and”; a condition that tells them apart may be missing. Equal values may be shown once. Toxic doses and inconclusive results are not listed.
Test system: P388 leukemia ip, CD2F1 mice, survival T/C
Experiment: NCI In Vivo Anticancer Drug Screen. Data for tumor model P388 Leukemia (intraperitoneal) in CD2F1 (CDF1) mice
Details: endpoint: median survival time, higher = longer survival
In short: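 Mice carrying the transplanted tumor received test compound or vehicle. Survival was recorded in each group, and the value is the treated-group measurement divided by that of the vehicle-treated control group.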

[1] = dose: 50.0 mg/kg/injection, schedule: Q01DX005 (ip), vehicle: saline with Tween-80
[2] = dose: 100.0 mg/kg/injection, schedule: Q01DX005 (ip), vehicle: saline with Tween-80
[3] = dose: 200.0 mg/kg/injection, schedule: Q01DX005 (ip), vehicle: saline with Tween-80
[4] = dose: 25.0 mg/kg/injection, schedule: Q01DX009 (ip), vehicle: saline
[5] = dose: 50.0 mg/kg/injection, schedule: Q01DX009 (ip), vehicle: saline with Tween-80
[6] = dose: 50.0 mg/kg/injection, schedule: Q01DX009 (ip), vehicle: saline
[7] = dose: 200.0 mg/kg/injection, schedule: Q01DX009 (ip), vehicle: saline with Tween-80
[8] = dose: 200.0 mg/kg/injection, schedule: Q01DX009 (ip), vehicle: saline
[9] = dose: 100.0 mg/kg/injection, schedule: Q01DX009 (ip), vehicle: saline with Tween-80
[10] = dose: 12.5 mg/kg/injection, schedule: Q01DX005 (ip), vehicle: saline with Tween-80
[11] = dose: 25.0 mg/kg/injection, schedule: Q01DX005 (ip), vehicle: saline with Tween-80

SMILES: CCOC(=O)Nc1cc(NC/C(CN(C)c2ccc(OC)cc2)=N/O)c([N+](=O)[O-])c(N)n1
- T/C [1]: 86 % of control
- T/C [2]: 86 % of control

SMILES: Cc1ccnc(NC(=O)Nc2cc(F)ccc2F)c1
- T/C (dose: 30.0 mg/kg/injection, schedule: Q01DX005 (ip), vehicle: saline with Tween-80): 87 % of control
- T/C (dose: 60.0 mg/kg/injection, schedule: Q01DX005 (ip), vehicle: saline with Tween-80): 87 % of control and 89 % of control
- T/C (dose: 120.0 mg/kg/injection, schedule: Q01DX005 (ip), vehicle: saline with Tween-80): 101 % of control
- T/C (dose: 240.0 mg/kg/injection, schedule: Q01DX005 (ip), vehicle: saline with Tween-80): 87 % of control

SMILES: CCCCOC(=O)C1=NNC(=O)C1
- T/C (dose: 25.0 mg/kg/injection, schedule: Q01DX009 (ip), vehicle: Klucel (hydroxypropylcellulose) (HPC)): 115 % of control
- T/C (dose: 50.0 mg/kg/injection, schedule: Q01DX009 (ip), vehicle: Klucel (hydroxypropylcellulose) (HPC)): 108 % of control
- T/C (dose: 100.0 mg/kg/injection, schedule: Q01DX009 (ip), vehicle: Klucel (hydroxypropylcellulose) (HPC)): 112 % of control
- T/C (dose: 200.0 mg/kg/injection, schedule: Q01DX009 (ip), vehicle: Klucel (hydroxypropylcellulose) (HPC)): 108 % of control

SMILES: CN(C)CCCN1c2ccccc2Sc2ccc3ccccc3c21
- T/C [1]: 104 % of control
- T/C [2]: 102 % of control
- T/C [3]: 104 % of control

SMILES: CCOC(=O)c1c(C)[nH]c(=O)c(C#N)c1NC1CCCCC1
- T/C (dose: 25.0 mg/kg/injection, schedule: Q04DX002 (ip), vehicle: saline with Tween-80): 98 % of control
- T/C (dose: 50.0 mg/kg/injection, schedule: Q04DX002 (ip), vehicle: saline with Tween-80): 100 % of control
- T/C (dose: 100.0 mg/kg/injection, schedule: Q04DX002 (ip), vehicle: saline with Tween-80): 92 % of control

SMILES: C[CH2][Sn]([CH2]C)([S]CCS(=O)(=O)O)[S]CCS(=O)(=O)O
- T/C (dose: 0.93 mg/kg/injection, schedule: Q01DX005 (ip), vehicle: saline): 95 % of control
- T/C (dose: 1.87 mg/kg/injection, schedule: Q01DX005 (ip), vehicle: saline): 95 % of control

SMILES: O=CC=O
- T/C [4]: 98 % of control
- T/C [5]: 116 % of control
- T/C [6]: 120 % of control
- T/C [7]: 152 % of control
- T/C [8]: 88 % of control

SMILES: CCCCCCC1(/C=C/c2ccc(Cl)c(Cl)c2)OCC(C)(C)CO1
- T/C [5]: 100 % of control
- T/C [9]: 89 % of control
- T/C [7]: 90 % of control

SMILES: CCC[CH2][Sn]([CH2]CCC)([CH2]CCC)[CH2]CC[N+](C)(C)C.CS(=O)(=O)[O-]
- T/C (dose: 0.78 mg/kg/injection, schedule: Q01DX009 (ip), vehicle: saline): 100 % of control
- T/C (dose: 1.56 mg/kg/injection, schedule: Q01DX009 (ip), vehicle: saline): 101 % of control
- T/C (dose: 3.12 mg/kg/injection, schedule: Q01DX009 (ip), vehicle: saline): 98 % of control

SMILES: NC(=S)c1ncn(C2OC(CO)C(O)C2O)c1N (centres undefined)
- T/C (dose: 12.5 mg/kg/injection, schedule: Q01DX009 (ip), vehicle: saline): 104 % of control
- T/C [4]: 101 % of control
- T/C [6]: 101 % of control
- T/C (dose: 100.0 mg/kg/injection, schedule: Q01DX009 (ip), vehicle: saline): 112 % of control
- T/C [8]: 112 % of control
- T/C (dose: 400.0 mg/kg/injection, schedule: Q01DX009 (ip), vehicle: saline): 101 % of control

SMILES: O=C(/C=C/c1ccccc1O)c1ccccc1
- T/C [5]: 97 % of control
- T/C [9]: 102 % of control
- T/C [7]: 108 % of control

SMILES: CC(=O)c1ccc(NN=NCCF)cc1
- T/C (dose: 1.56 mg/kg/injection, schedule: Q01DX009 (ip), vehicle: water): 107 % of control
- T/C (dose: 6.25 mg/kg/injection, schedule: Q01DX009 (ip), vehicle: water): 154 % of control
- T/C (dose: 12.5 mg/kg/injection, schedule: Q01DX009 (ip), vehicle: distilled water + Tween-80): 271 % of control

SMILES: CCCCCCCC(=O)Nc1nnc(SCCCCCCCCCCCCSc2nnc(NC(=O)CCCCCCC)s2)s1
- T/C (dose: 50.0 mg/kg/injection, schedule: Q01DX005 (ip), vehicle: Klucel (hydroxypropylcellulose) (HPC)): 90 % of control
- T/C (dose: 100.0 mg/kg/injection, schedule: Q01DX005 (ip), vehicle: Klucel (hydroxypropylcellulose) (HPC)): 89 % of control
- T/C (dose: 200.0 mg/kg/injection, schedule: Q01DX005 (ip), vehicle: Klucel (hydroxypropylcellulose) (HPC)): 86 % of control

SMILES: Cc1cccc(/C=N\N=C\c2cccc(C)n2)n1
- T/C [9]: 100 % of control
- T/C [7]: 100 % of control

SMILES: COc1c2c(c(Cc3c4c(c(OC)c5c3OCO5)OC(C)C4)c3c1OCO3)CC(C)O2 (centres undefined)
- T/C [10]: 96 % of control
- T/C [11]: 94 % of control
- T/C [1]: 89 % of control and 95 % of control

SMILES: CC[N+](CC)=c1cc2oc3cc(N(C)C)ccc3nc-2cc1C
- T/C (dose: 6.25 mg/kg/injection, schedule: Q01DX005 (ip), vehicle: saline with Tween-80): 99 % of control and 107 % of control
- T/C (dose: 6.25 mg/kg/injection, schedule: Q01DX005 (ip), vehicle: saline): 107 % of control
- T/C [10]: 106 % of control and 110 % of control
- T/C (dose: 12.5 mg/kg/injection, schedule: Q01DX005 (ip), vehicle: saline): 112 % of control
- T/C [11]: 109 % of control and 115 % of control
- T/C (dose: 25.0 mg/kg/injection, schedule: Q01DX005 (ip), vehicle: saline): 122 % of control
- T/C [1]: 109 % of control and 110 % of control and 112 % of control

SMILES: CC(CN1CC(=O)NC(=O)C1)N1CC(=O)NC(=O)C1 (centres undefined)
- T/C (dose: 6.48 mg/kg/injection, schedule: Q04DX002 (ip), vehicle: saline): 117 % of control
- T/C (dose: 50.0 mg/kg/injection, schedule: Q04DX002 (ip), vehicle: Klucel (hydroxypropylcellulose) (HPC)): 123 % of control
- T/C (dose: 64.8 mg/kg/injection, schedule: Q04DX003 (ip), vehicle: saline): 119 % of control
- T/C (dose: 77.8 mg/kg/injection, schedule: Q04DX002 (ip), vehicle: saline with Tween-80): 118 % of control
- T/C (dose: 180.0 mg/kg/injection, schedule: Q04DX002 (ip), vehicle: saline): 156 % of control
- T/C (dose: 180.0 mg/kg/injection, schedule: Q04DX003 (ip), vehicle: saline): 161 % of control
- T/C (dose: 200.0 mg/kg/injection, schedule: Q04DX002 (ip), vehicle: Klucel (hydroxypropylcellulose) (HPC)): 153 % of control and 163 % of control
- T/C (dose: 216.0 mg/kg/injection, schedule: Q04DX002 (ip), vehicle: saline with Tween-80): 152 % of control
- T/C (dose: 300.0 mg/kg/injection, schedule: Q04DX002 (ip), vehicle: saline): 174 % of control
- T/C (dose: 300.0 mg/kg/injection, schedule: Q04DX003 (ip), vehicle: saline): 214 % of control and 217 % of control
- T/C (dose: 360.0 mg/kg/injection, schedule: Q04DX002 (ip), vehicle: saline with Tween-80): 195 % of control
- T/C (dose: 400.0 mg/kg/injection, schedule: Q04DX002 (ip), vehicle: Klucel (hydroxypropylcellulose) (HPC)): 223 % of control and 94 % of control
- T/C (dose: 500.0 mg/kg/injection, schedule: Q04DX002 (ip), vehicle: saline): 100 % of control
- T/C (dose: 500.0 mg/kg/injection, schedule: Q04DX003 (ip), vehicle: saline): 118 % of control and 219 % of control
- T/C (dose: 600.0 mg/kg/injection, schedule: Q04DX002 (ip), vehicle: saline with Tween-80): 213 % of control

SMILES: Cc1noc(/N=N/N(C)c2ccccc2)c1C
- T/C [5]: 103 % of control
- T/C [9]: 96 % of control

SMILES: C/C=C(\C)C(=O)OC1C(C)=C2C(C1OC(=O)CCCC)C(C)(OC(C)=O)CC(OC(=O)CCCC)C1(O)C2OC(=O)C1(C)O (centres undefined)
- T/C (dose: 0.37 mg/kg/injection, schedule: Q01DX009 (ip), vehicle: Klucel (hydroxypropylcellulose) (HPC)): 92 % of control
- T/C (dose: 0.75 mg/kg/injection, schedule: Q01DX009 (ip), vehicle: Klucel (hydroxypropylcellulose) (HPC)): 101 % of control
- T/C (dose: 1.5 mg/kg/injection, schedule: Q01DX009 (ip), vehicle: Klucel (hydroxypropylcellulose) (HPC)): 100 % of control
- T/C (dose: 3.0 mg/kg/injection, schedule: Q01DX009 (ip), vehicle: Klucel (hydroxypropylcellulose) (HPC)): 100 % of control

SMILES: COc1ccc2c(c1)OC(C)(C)C(c1ccccc1)=C2c1ccc2c(c1)NC(=O)CO2
- T/C [1]: 99 % of control
- T/C [2]: 90 % of control
- T/C [3]: 94 % of control

SMILES: [Cl][Sn]1([Cl])[CH2]CC[CH2][Sn]([Cl])([Cl])[CH2]CC[CH2]1
- T/C (dose: 25.0 mg/kg/injection, schedule: Q01DX001 (ip), vehicle: saline): 107 % of control
- T/C (dose: 50.0 mg/kg/injection, schedule: Q01DX001 (ip), vehicle: saline): 107 % of control
- T/C (dose: 100.0 mg/kg/injection, schedule: Q01DX001 (ip), vehicle: saline): 120 % of control
- T/C (dose: 100.0 mg/kg/injection, schedule: Q04DX002 (ip), vehicle: saline): 109 % of control
